Data published in patent US20100003217A1, “Compounds and Pharmaceutical Compositions for the Treatment of Viral Infections” (priority 2008, published 2010).
Several values for one entry are separate records, joined by “and”; a condition that tells them apart may be missing. Equal values may be shown once.

Assays:
[1] = system: monkey primary hepatocytes; assay: Metabolic disposition of [^14C]-Compound 1 and [^14C]-2′-C-methyl guanosine in monkey primary hepatocytes (incubation medium, cellular extracts, nucleotide levels); assay type: in vitro ADME, Cynomolgus monkey
Procedure: (§1) Primary hepatocytes: Freshly isolated cells from animal and human liver were obtained in suspension on ice. Cells were pelleted by centrifugation at 70-75×g (rat) or 95-90×g (monkey and human) and resuspended at 0.8 million cells per mL of platting medium (William's E supplemented with 5% FBS, 0.5% penicillin-streptomycin, 1% L-glutamine, 4 μg/mL insulin and 1 μM dexamethasone). Multi-well collagen I-coated plates (rat tail collagen type I; 12- or 6-well) were then seeded by addition of 1 mL (12-well; 0.8 million cells/well) or 2 mL (6-well; 1.6 million cells/well) of cell suspension. The plates were gently shaken to evenly distribute the cells and placed in an incubator at 37° C. for approximately 4 to 6 hours to allow cells to attach. Once cells were attached, the platting medium was removed and replaced with hepatocyte culture medium (William's E supplemented with penicillin-streptomycin, 1% L-glutamine, 1% insulin-transferrin-selenium and 0.1 μM dexamethasone). Cells were left overnight in an incubator at 37° C. to acclimatize to culture and the medium.
(§2) Hepatocyte incubations with radiolabeled Compound 1 and 2′-C-methyl guanosine, both labeled in the C-8 position of the guanine moiety, were conducted at a final volume of 2.0 mL hepatocyte culture medium/well ([…]). Culture medium from overnight incubation of cells was removed and replaced with fresh medium, pre-warmed to 37° C., containing 1 or 10 μM [^14C]-Compound 1 ([…]) or [^14C]-2′-C-methyl guanosine (127 DPM/μmol) from a stock solution in DMSO (final DMSO concentration was 0.1%) or 50% ethanol (final ethanol concentration was 0.2%). After 1, 4, 8 and 24 hours, 0.5-1.0 mL of incubation medium was removed and stored at −20° C. until analysis (described below). The remaining medium was discarded and cell monolayers were carefully washed two times with ice-cold PBS. Following the last wash, all PBS was carefully removed and 1.0 mL of extraction solution (ice-cold 70% methanol) added. Cells were scrapped off and suspended in the extraction solution, transferred to 2 mL polypropylene microfuge tubes and intracellular contents extracted overnight at −20° C.
(§3) Preliminary identification of putative metabolites was conducted by comparing the retention time of observed metabolites in incubation medium and cellular extracts with retention times obtained with chemically synthesized standards using the chromatography conditions described below. Further identification of 2′-C-methyl guanosine nucleotides (mono-, di- and triphosphate) was carried out by incubating cellular extract samples with alkaline phosphatase (10 units for 60 min at 37° C.) and comparing the HPLC retention times of the resulting nucleosides with that of authentic 2′-C-methyl guanosine.
(§4) Cellular extracts were prepared by centrifugation at 16,000 RCF using an Eppendorf microcentrifuge (Eppendorf, Model 5415D) for 10 min to remove cellular debris. An aliquot of 5-10 μL of the supernatant was added to 5 mL of EcoLite™ (MP, Irvine, Calif.) liquid scintillation cocktail and radioactivity measured by liquid scintillation counting (LSC) using a Beckman Coulter LS6500 multipurpose liquid scintillation counter (Beckman Instruments, Fullerton, Calif.). The remaining sample was then dried using a Labconco refrigerated centrivap concentrator (Labconco, Kansas City, Mo.). Dry extracts were reconstituted in 120 μL of HPLC-grade water and centrifuged at 16,000 RCF using an Eppendorf microcentrifuge for 10 min. Prior to HPLC analysis (described below), radioactivity of the concentrated extracts was measured by LSC using 5 μL aliquots. Extraction recovery was then determined by comparing total radioactivity in extracts before and after drying. The remaining extract was then analyzed by HPLC with online radioactivity detection using a Flow Scintillation Analyzer Radiomatic™ 515TR. Radioactivity in the separated components was quantified by integrating the peaks using Flo-One™ Software (Perkin Elmer Life Sciences). […]

[2] = system: human primary hepatocytes; assay: Metabolic disposition of [^14C]-Compound 1 and [^14C]-2′-C-methyl guanosine in human primary hepatocytes (incubation medium, cellular extracts, nucleotide levels); assay type: in vitro ADME; conditions: for metabolites observed in cellular extracts (% of total radioactivity): human hepatocytes (Hu759, Hu775)
Procedure: as §1, §2, §3, §4

[3] = monkey hepatocytes (Cy234), 10 μM [^14C]-Compound 1, 4 h
[4] = monkey hepatocytes Cy230, 10 μM [^14C]-2′-C-methyl guanosine, 1 h
[5] = monkey hepatocytes Cy230, 10 μM [^14C]-2′-C-methyl guanosine, 8 h
[6] = monkey hepatocytes Cy230, 10 μM [^14C]-2′-C-methyl guanosine, 24 h
[7] = monkey hepatocytes Cy234, 10 μM [^14C]-2′-C-methyl guanosine, 1 h
[8] = monkey hepatocytes Cy234, 10 μM [^14C]-2′-C-methyl guanosine, 4 h
[9] = monkey hepatocytes Cy234, 10 μM [^14C]-2′-C-methyl guanosine, 8 h
[10] = monkey hepatocytes Cy234, 10 μM [^14C]-2′-C-methyl guanosine, 24 h
[11] = human hepatocytes (Hu775), 1 μM [^14C]-Compound 1, 0 h

C[C@@]1(O)[C@H](O)[C@@H](COP(=O)(O)O)O[C@H]1n1cnc2c(=O)[nH]c(N)nc21 [Compound 5, [(2R)-2-methyl-β-D-ribofuranosyl]guanine 5′-monophosphate]
metabolites observed in cellular extracts (% of total radioactivity) ([1]; monkey hepatocytes (Cy230, Cy234), 10 μM [^14C]-Compound 1, 8 h): 3.84% and 5.38% | metabolites observed in cellular extracts (% of total radioactivity) ([1]; monkey hepatocytes (Cy230, Cy234), 10 μM [^14C]-Compound 1, 24 h): 6.96% and 3.34% | 2′-C-methyl guanosine nucleotide levels in cellular extracts [1, 3]: 14.3 pmol/million cells | metabolites observed in cellular extracts (% of total radioactivity) [1, 3]: 5.47% | metabolites observed in medium (% of total radioactivity) ([1]; monkey hepatocytes (lot Cy234), 10 μM [^14C]-Compound 1, 4 h): 19.0% | metabolites observed in medium (% of total radioactivity) ([1]; monkey hepatocytes (lots Cy230, Cy234), 10 μM [^14C]-Compound 1, 0 h): BLD | metabolites observed in medium (% of total radioactivity) ([1]; monkey hepatocytes (lots Cy230, Cy234), 10 μM [^14C]-Compound 1, 24 h): 8% and 8.4% and 7.5% | 2′-C-methyl guanosine nucleotide levels in cellular extracts ([1]; monkey hepatocytes Cy230, 10 μM [^14C]-2′-C-methyl guanosine, 0 h): 0 pmol/million cells | 2′-C-methyl guanosine nucleotide levels in cellular extracts [1, 4]: BLD^b (BLD = below limit of detection (0.02 pmol/million cells)) | Major metabolites observed in cellular extracts (% of total radioactivity) [1, 4]: BLD^b (BLD = below limit of detection (30 DPM)) | 2′-C-methyl guanosine nucleotide levels in cellular extracts [1, 5]: BLD (BLD = below limit of detection (0.02 pmol/million cells)) | Major metabolites observed in cellular extracts (% of total radioactivity) [1, 5]: BLD (BLD = below limit of detection (30 DPM)) | 2′-C-methyl guanosine nucleotide levels in cellular extracts [1, 6]: BLD (BLD = below limit of detection (0.02 pmol/million cells)) | Major metabolites observed in cellular extracts (% of total radioactivity) [1, 6]: BLD (BLD = below limit of detection (30 DPM)) | 2′-C-methyl guanosine nucleotide levels in cellular extracts ([1]; monkey hepatocytes Cy230, 10 μM [^14C]-Compound 1, 0 h): 0 pmol/million cells | 2′-C-methyl guanosine nucleotide levels in cellular extracts ([1]; monkey hepatocytes Cy230, 10 μM [^14C]-Compound 1, 1 h): 23.9 pmol/million cells | 2′-C-methyl guanosine nucleotide levels in cellular extracts ([1]; monkey hepatocytes Cy230, 10 μM [^14C]-Compound 1, 8 h): 42.5 pmol/million cells | 2′-C-methyl guanosine nucleotide levels in cellular extracts ([1]; monkey hepatocytes Cy230, 10 μM [^14C]-Compound 1, 24 h): 33.2 pmol/million cells | 2′-C-methyl guanosine nucleotide levels in cellular extracts ([1]; monkey hepatocytes Cy234, 10 μM [^14C]-2′-C-methyl guanosine, 0 h): 0 pmol/million cells | 2′-C-methyl guanosine nucleotide levels in cellular extracts [1, 7]: 0.95 pmol/million cells | Major metabolites observed in cellular extracts (% of total radioactivity) [1, 7]: 2.19 % of total radioactivity | 2′-C-methyl guanosine nucleotide levels in cellular extracts [1, 8]: BLD (BLD = below limit of detection (0.02 pmol/million cells)) | Major metabolites observed in cellular extracts (% of total radioactivity) [1, 8]: BLD (BLD = below limit of detection (30 DPM)) | 2′-C-methyl guanosine nucleotide levels in cellular extracts [1, 9]: 3.00 pmol/million cells | Major metabolites observed in cellular extracts (% of total radioactivity) [1, 9]: 3.32 % of total radioactivity | 2′-C-methyl guanosine nucleotide levels in cellular extracts [1, 10]: 5.50 pmol/million cells | Major metabolites observed in cellular extracts (% of total radioactivity) [1, 10]: 5.03 % of total radioactivity | 2′-C-methyl guanosine nucleotide levels in cellular extracts ([1]; monkey hepatocytes Cy234, 10 μM [^14C]-Compound 1, 0 h): 0 pmol/million cells | 2′-C-methyl guanosine nucleotide levels in cellular extracts ([1]; monkey hepatocytes Cy234, 10 μM [^14C]-Compound 1, 1 h): 11.7 pmol/million cells | 2′-C-methyl guanosine nucleotide levels in cellular extracts ([1]; monkey hepatocytes Cy234, 10 μM [^14C]-Compound 1, 8 h): 33.0 pmol/million cells | 2′-C-methyl guanosine nucleotide levels in cellular extracts ([1]; monkey hepatocytes Cy234, 10 μM [^14C]-Compound 1, 24 h): 23.2 pmol/million cells | metabolites observed in cellular extracts (% of total radioactivity) ([2]; 10 μM [^14C]-2′-C-methyl guanosine, 8 h): 1.89% and 1.11% | metabolites observed in cellular extracts (% of total radioactivity) ([2]; 10 μM [^14C]-2′-C-methyl guanosine, 24 h): 3.82% and 3.41% | metabolites observed in cellular extracts (% of total radioactivity) ([2]; 10 μM [^14C]-Compound 1, 1 h): 6.44% and 8.77% | metabolites observed in cellular extracts (% of total radioactivity) ([2]; 10 μM [^14C]-Compound 1, 4 h): 5.70% and 5.54% | metabolites observed in cellular extracts (% of total radioactivity) ([2]; 10 μM [^14C]-Compound 1, 8 h): 7.99% and 4.44% | metabolites observed in cellular extracts (% of total radioactivity) ([2]; 10 μM [^14C]-Compound 1, 24 h): 5.38% and 12.8% | 2′-C-methyl guanosine nucleotide levels in cellular extracts [2, 11]: BLD^a (BLD = below limit of detection (0.02 pmol/million cells)) | metabolites observed in medium (% of total radioactivity) [2, 11]: BLD | 2′-C-methyl guanosine nucleotide levels in cellular extracts ([2]; human hepatocytes (Hu775), 1 μM [^14C]-Compound 1, 1 h): 2.40 pmol/million cells
